Assay results from patent US20240101540A1, “TARGETED PROTEIN DEGRADATION OF PARP14 FOR USE IN THERAPY” (Ribon Therapeutics, Inc., priority 2022, published 2024).

What follows are molecules tested against T1, catalytic domain of human PARP14 (residues 1611 to 1801) with NanoLuc tag (Homo sapiens, UniProt Q460N5) (assay: NanoLuc assay for the degradation of PARP14 (NanoLuc-tagged PARP14 overexpressed in HEK-293T cells, 2 hours)). Conditions: Assay A (Example A): NanoLuc-tagged PARP14 degradation in HEK-293T cells, read-out: DC50.
T1 construct: expressed in transfected cells; host or cells: HEK-293T cells (ATCC), pcDNA3.1(-) vector
T1 sequence (Q460N5 1611-1801): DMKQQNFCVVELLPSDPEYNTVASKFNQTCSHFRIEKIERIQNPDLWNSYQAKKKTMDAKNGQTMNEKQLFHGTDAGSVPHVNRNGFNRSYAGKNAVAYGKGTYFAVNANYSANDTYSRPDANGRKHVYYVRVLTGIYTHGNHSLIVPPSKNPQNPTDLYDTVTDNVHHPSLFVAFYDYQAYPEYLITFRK
Assay type: cell-based

DC50, < 100 nM:
O=C1CCC(Nc2ccc(C3CCN(CCN4CCC(COc5cc(F)c6c(=O)[nH]c(CSC7CCOCC7)nc6c5)CC4)CC3)cc2)C(=O)N1 (stereo not drawn) [Example 49, 3-((4-(1-(2-(4-(((5-fluoro-4-oxo-2-(((tetrahydro-2H-pyran-4-yl)thio)methyl)-3,4-dihydroquinazolin-7-yl)oxy)methyl)piperidin-1-yl)ethyl)piperidin-4-yl)phenyl)amino)piperidine-2,6-dione]
O=C1CCC(Nc2ccc(OC3CC(N4CCC(COc5cc(F)c6c(=O)[nH]c(CSC7CCOCC7)nc6c5)CC4)C3)cc2)C(=O)N1 (stereo not drawn) [Example 81, 3-((4-(3-(4-(((5-fluoro-4-oxo-2-(((tetrahydro-2H-pyran-4-yl)thio)methyl)-3,4-dihydroquinazolin-7-yl)oxy)methyl)piperidin-1-yl)cyclobutoxy)phenyl)amino)piperidine-2,6-dione]
O=C1CCC(N2C(=O)c3ccc(N4CC(N5CCC(COc6cc(F)c7c(=O)[nH]c(CSC8CCOCC8)nc7c6)CC5)C4)cc3C2=O)C(=O)N1 (stereo not drawn) [Example 41, 2-(2,6-dioxopiperidin-3-yl)-5-(3-(4-(((5-fluoro-4-oxo-2-(((tetrahydro-2H-pyran-4-yl)thio)methyl)-3,4-dihydroquinazolin-7-yl)oxy)methyl)piperidin-1-yl)azetidin-1-yl)isoindoline-1,3-dione]
O=C1CCC(Nc2ccc(C3CCN(CC4CCN(C(=O)CN5CCC(COc6cc(F)c7c(=O)[nH]c(CSC8CCOCC8)nc7c6)CC5)CC4)CC3)cc2)C(=O)N1 (stereo not drawn) [Example 18, 3-((4-(1-((1-(2-(4-(((5-fluoro-4-oxo-2-(((tetrahydro-2H-pyran-4-yl)thio)methyl)-3,4-dihydroquinazolin-7-yl)oxy)methyl)piperidin-1-yl)acetyl)piperidin-4-yl)methyl)piperidin-4-yl)phenyl)amino)piperidine-2,6-dione]
O=C1CCC(N2C(=O)c3cccc(OC4CC(CN5CCC(COc6cc(F)c7c(=O)[nH]c(CSC8CCOCC8)nc7c6)CC5)C4)c3C2=O)C(=O)N1 (single isomer, unassigned) [Example 80b, 2-(2,6-dioxopiperidin-3-yl)-4-((1s,3s)-3-((4-(((5-fluoro-4-oxo-2-(((tetrahydro-2H-pyran-4-yl)thio)methyl)-3,4-dihydroquinazolin-7-yl)oxy)methyl)piperidin-1-yl)methyl)cyclobutoxy)isoindoline-1,3-dione]
O=C1CCC(N2C(=O)c3ccc(N4CCC(COc5cc(F)c6c(=O)[nH]c(CSC7CCOCC7)nc6c5)CC4)cc3C2=O)C(=O)N1 (stereo not drawn) [Example 23, 2-(2,6-dioxopiperidin-3-yl)-5-(4-(((5-fluoro-4-oxo-2-(((tetrahydro-2H-pyran-4-yl)thio)methyl)-3,4-dihydroquinazolin-7-yl)oxy)methyl)piperidin-1-yl)isoindoline-1,3-dione]
O=C1CCC(Nc2ccc(N3CCN(C4CCC(COc5cc(F)c6c(=O)[nH]c(CSC7CCOCC7)nc6c5)CC4)CC3)cc2)C(=O)N1 (stereo not drawn) [Example 124]
O=C1CCC(N2C(=O)c3cccc(OC4CC(CN5CCC(COc6cc(F)c7c(=O)[nH]c(CSC8CCOCC8)nc7c6)CC5)C4)c3C2=O)C(=O)N1 (single isomer, unassigned) [Example 80a, 2-(2,6-dioxopiperidin-3-yl)-4-((1r,3r)-3-((4-(((5-fluoro-4-oxo-2-(((tetrahydro-2H-pyran-4-yl)thio)methyl)-3,4-dihydroquinazolin-7-yl)oxy)methyl)piperidin-1-yl)methyl)cyclobutoxy)isoindoline-1,3-dione]
Cn1nc(N2CCC(=O)NC2=O)c2ccc(N3CCN(CCN4CCC(COc5cc(F)c6c(=O)[nH]c(CSC7CCOCC7)nc6c5)CC4)CC3)cc21 [Example 75, 1-(6-(4-(2-(4-(((5-fluoro-4-oxo-2-(((tetrahydro-2H-pyran-4-yl)thio)methyl)-3,4-dihydroquinazolin-7-yl)oxy)methyl)piperidin-1-yl)ethyl)piperazin-1-yl)-1-methyl-1H-indazol-3-yl)dihydropyrimidine-2,4(1H,3H)-dione]
O=C1CCC(Nc2ccc(N3CCC(N4CC(N5CCC(COc6cc(F)c7c(=O)[nH]c(CSC8CCOCC8)nc7c6)CC5)C4)CC3)cc2)C(=O)N1 (stereo not drawn) [Example 88, 3-((4-(4-(3-(4-(((5-fluoro-4-oxo-2-(((tetrahydro-2H-pyran-4-yl)thio)methyl)-3,4-dihydroquinazolin-7-yl)oxy)methyl)piperidin-1I-yl)azetidin-1-yl)piperidin-1-yl)phenyl)amino)piperidine-2,6-dione]
O=C1CCC(Nc2ccc(OC3CC(CN4CCC(COc5cc(F)c6c(=O)[nH]c(CSC7CCOCC7)nc6c5)CC4)C3)cc2)C(=O)N1 (stereo not drawn) [Example 47, 3-({4-[3-({4-[({5-fluoro-2-[(oxan-4-ylsulfanyl)methyl]-4-oxo-3H-quinazolin-7-yl}oxy)methyl]piperidin-1-yl}methyl)cyclobutoxy]phenyl}amino)piperidine-2,6-dione]
O=C1CCC(Oc2ccc(N3CCN(CCN4CCC(COc5cc(F)c6c(=O)[nH]c(CSC7CCOCC7)nc6c5)CC4)CC3)cc2)C(=O)N1 (stereo not drawn) [Example 65, 3-(4-(4-(2-(4-(((5-fluoro-4-oxo-2-(((tetrahydro-2H-pyran-4-yl)thio)methyl)-3,4-dihydroquinazolin-7-yl)oxy)methyl)piperidin-1-yl)ethyl)piperazin-1-yl)phenoxy)piperidine-2,6-dione]
O=C1CCC(c2ccc(NCC#CCN3CCC(COc4cc(F)c5c(=O)[nH]c(CSC6CCOCC6)nc5c4)CC3)cc2)C(=O)N1 (stereo not drawn) [Example 45, 3-(4-((4-(4-(((5-fluoro-4-oxo-2-(((tetrahydro-2H-pyran-4-yl)thio)methyl)-3,4-dihydroquinazolin-7-yl)oxy)methyl)piperidin-1-yl)but-2-yn-1-yl)amino)phenyl)piperidine-2,6-dione]
O=C1CCN(c2ccc(C3CCN(CCN4CCC(COc5cc(F)c6c(=O)[nH]c(CSC7CCOCC7)nc6c5)CC4)CC3)cc2)C(=O)N1 [Example 77, 1-(4-(1-(2-(4-(((5-fluoro-4-oxo-2-(((tetrahydro-2H-pyran-4-yl)thio)methyl)-3,4-dihydroquinazolin-7-yl)oxy)methyl)piperidin-1-yl)ethyl)piperidin-4-yl)phenyl)dihydropyrimidine-2,4(1H,3H)-dione]
O=C1CCC(Nc2ccc(N3CCN(CCN4CCC(COc5cc(F)c6c(=O)[nH]c(CC7CCCC7)nc6c5)CC4)CC3)cc2)C(=O)N1 (stereo not drawn) [Example 96, 3-((4-(4-(2-(4-(((2-(cyclopentylmethyl)-5-fluoro-4-oxo-3,4-dihydroquinazolin-7-yl)oxy)methyl)piperidin-1-yl)ethyl)piperazin-1-yl)phenyl)amino)piperidine-2,6-dione]
O=C1CCC(Nc2ccc(N3CCN(CCN4CCC(COc5cc(F)c6c(=O)[nH]c(CSC7CCOCC7)nc6c5)CC4)CC3C(F)(F)F)cc2)C(=O)N1 (stereo not drawn) [Example 122]
Cn1c(=O)n(C2CCC(=O)NC2=O)c2ccc(C3CCN(CCN4CCC(COc5cc(F)c6c(=O)[nH]c(CSC7CCOCC7)nc6c5)CC4)CC3)cc21 (stereo not drawn) [Example 78, 3-(5-(1-(2-(4-(((5-fluoro-4-oxo-2-(((tetrahydro-2H-pyran-4-yl)thio)methyl)-3,4-dihydroquinazolin-7-yl)oxy)methyl)piperidin-1-yl)ethyl)piperidin-4-yl)-3-methyl-2-oxo-2,3-dihydro-1H-benzo[d]imidazol-1-yl)piperidine-2,6-dione]
O=C1CCN(c2ccc(N3CCN(CCN4CCC(COc5cc(F)c6c(=O)[nH]c(CSC7CCOCC7)nc6c5)CC4)CC3)cc2)C(=O)N1 [Example 70, 1-(4-(4-(2-(4-(((5-fluoro-4-oxo-2-(((tetrahydro-2H-pyran-4-yl)thio)methyl)-3,4-dihydroquinazolin-7-yl)oxy)methyl)piperidin-1-yl)ethyl)piperazin-1-yl)phenyl)dihydropyrimidine-2,4(1H,3H)-dione]
O=C(CN1CCC(COc2cc(F)c3c(=O)[nH]c(CSC4CCOCC4)nc3c2)CC1)NCCOCCOCCNc1cccc2c1C(=O)N(C1CCC(=O)NC1=O)C2=O (stereo not drawn) [Example 7, N-(2-(2-(2-((2-(2,6-dioxopiperidin-3-yl)-1,3-dioxoisoindolin-4-yl)amino)ethoxy)ethoxy)ethyl)-2-(4-(((5-fluoro-4-oxo-2-(((tetrahydro-2H-pyran-4-yl)thio)methyl)-3,4-dihydroquinazolin-7-yl)oxy)methyl)piperidin-1-yl)acetamide]
O=C1CCC(N2C(=O)c3cccc(C#CCN4CCC(COc5cc(F)c6c(=O)[nH]c(CSC7CCOCC7)nc6c5)CC4)c3C2=O)C(=O)N1 (stereo not drawn) [Example 28, 2-(2,6-dioxopiperidin-3-yl)-4-(3-(4-(((5-fluoro-4-oxo-2-(((tetrahydro-2H-pyran-4-yl)thio)methyl)-3,4-dihydroquinazolin-7-yl)oxy)methyl)piperidin-1-yl)prop-1-yn-1-yl)isoindoline-1,3-dione]
O=C(CN1CCC(COc2cc(F)c3c(=O)[nH]c(CSC4CCOCC4)nc3c2)CC1)NCCOCCCNc1cccc2c1C(=O)N(C1CCC(=O)NC1=O)C2=O (stereo not drawn) [Example 13, N-(2-(3-((2-(2,6-dioxopiperidin-3-yl)-1,3-dioxoisoindolin-4-yl)amino)propoxy)ethyl)-2-(4-(((5-fluoro-4-oxo-2-(((tetrahydro-2H-pyran-4-yl)thio)methyl)-3,4-dihydroquinazolin-7-yl)oxy)methyl)piperidin-1-yl)acetamide]
